The source of these data is patent US20230381202A1, “COMPOSITIONS AND METHODS FOR TREATING CARDIOVASCULAR RELATED DISORDERS” (The Regents of the University of Michigan, priority 2020, published 2023).

The test system of one data set is washed mouse platelets. The experiment in a line: Ex vivo washed mice platelet activation inhibition test (thrombin-induced aggregation). Conditions: for platelet aggregation: 24 hours after IV ML355 1.5 mg/kg, sHDL 50 mg/kg. Format: in vivo. On the procedure: Male and female C57BL/6J mice were divided into four groups (n=4) and intravenously dosed with the following formulations: 1) control vehicle (equivalent volume); 2) ML355 (1.5 mg/kg); 3) sHDL (50 mg/kg); or 4) ML355-sHDL (sHDL at 50 mg/kg and ML355 at 1.5 mg/kg). 24 hours after administration, mice were sacrificed under terminal anesthesia. […] Mouse platelet preparation was performed as previously described (44, 45). Murine platelets were resuspended at 3×10^8 platelets/mL in Tyrode's buffer. Mouse platelet aggregation was induced by various doses of thrombin (0.1-0.5 nM) and measured with a lumi-aggregometer using the same method described above.

The test system of a further data set is platelets. The experiment in a line: Phosphatidylserine exposure on platelets. Format: in vivo, mouse. Conditions: 1, 6 and 24 hours post IV; compared to resting platelets. The procedure:
Male and female C57BL/6J mice (n=6) were intravenously dosed with the following treatments: 1) Saline control (equivalent volume); 2) ML355 (1.5 mg/kg); 3) sHDL (50 mg/kg); or 4) ML355-sHDL (sHDL at 50 mg/kg and ML355 at 1.5 mg/kg). At different time points post administration (1, 6 and 24 hours), the phosphatidylserine-exposure over time course in platelets from different groups were quantified by flow cytometry. Briefly, whole blood was collected from the saphenous vein and incubated with PE anti-mouse CD41 Antibody (BioLegend #133906) for platelet labeling and Annexin V, Alexa Fluor™ 647 conjugate (phosphatidylserine-exposure) (Thermo Fisher Scientific). The mean fluorescent intensity of Annexin in platelets was quantified by flow cytometry. In addition, blood collected from mice prior to treatment was taken as resting platelets (negative control) and blood stimulated with PAR4-AP (200 μM) was used as activated platelets (positive control).

The subject of data set [1] is C57BL/6J mice. The experiment in a line: FeCl3-induced carotid artery thrombosis model. Format: in vivo, mouse. Conditions: IV 24 hours before 10% FeCl3 injury. The procedure:
Male and female C57BL/6J mice (n=6) were intravenously injected with vehicle control (equivalent volume of saline), ML355 (1.5 mg/kg), sHDL (50 mg/kg) or ML355-sHDL (sHDL at 50 mg/kg and ML355 at 1.5 mg/kg), respectively. 24 hours post-administration, mice were anesthetized as described above and tail veins were injected with a DyLight 488 anti-GPIb (1 μg/g; Emfret, Elbelstadt, Germany) to label circulating resting platelets in mice prior to intravital microscopy imaging. The mice were placed on a heating pad and the right common carotid artery was prepared under the dissecting microscope. Then, the mice were placed on the microscopic stage and blood flow in the carotid artery was visualized under 10× air objective using a Zeiss Axio Examiner Z1 upright fluorescent microscopy. Carotid artery injury was induced by topically placing a 10% FeCl3 saturated Whatman paper for 3 minutes under recording. Images of platelet adhesion and the dynamics of thrombus formation were recorded for 30 minutes using a high-speed sCMOS camera using Slidebook 6.0.

A further data set relates to whole blood. Description: Coagulation tests by thromboelastography. Format: in vivo, mouse. Conditions: 24 hours post IV; ML355 1.5 mg/kg, sHDL 50 mg/kg. The procedure:
Male and female C57BL/6J mice (n=6) were intravenously injected with vehicle control (equivalent volume of saline), ML355 (1.5 mg/kg), sHDL (50 mg/kg) or ML355-sHDL (sHDL at 50 mg/kg and ML355 at 1.5 mg/kg), respectively. 24 hours after administration, mice were anesthetized by intraperitoneal injection of ketamine/xylazine mixture as described above. Whole blood was collected via vena cava using a 25 G syringe containing sodium citrate 3.8% (blood to citrate volume ratio is […]). 340 μL citrated blood was mixed with 20 μL CaCl2 (0.2 mol/L), and viscoelastic properties of whole blood clot formation was studied under low shear stress using a Heamoscope TEG 5000 Thrombelastograph Hemostasis Analyzer (Haemonetics Corp., Braintree, Massachusetts, USA) according to the manufacturer's instructions. Major coagulation parameters including R time (time to formation of the initial fibrin threads), Alpha angle (the rapidity with which the clot forms), K time (the time until the clot reaches a certain strength) and maximum amplitude (clot's maximum strength) were analyzed and compared among different groups.

The conditions of data set [2]: pH 7.4 PBS; cited from earlier work.
The test system of data set [3] is C57BL/6J mice. The experiment in a line: Laser-induced cremaster arteriole thrombosis model. Conditions: IV 24 hours before injury; ML355 1.5 mg/kg, sHDL 50 mg/kg. In kind it is in vivo, mouse. The procedure:
Male C57BL/6J mice (n=3) were intravenously dosed with the following treatments: 1) saline control (equivalent volume); 2) ML355 (1.5 mg/kg); 3) sHDL (50 mg/kg); or 4) ML355-sHDL (sHDL at 50 mg/kg and ML355 at 1.5 mg/kg). 24 hours post-administration, mice were anesthetized and surgically prepared as above described. DyLight 647-conjugated rat anti-mouse platelet GP11:43 antibody (0.1 μg/g; X649; EMFRET Analytics) was administered by jugular vein cannula prior to vascular injury. Multiple independent thrombi (8-10) were induced in the arterioles (30-50 μm diameter) in each mouse (3 mice per group) by a laser ablation system. All captured images were analyzed for change in fluorescent intensity over time of thrombus formation by subtracting fluorescent background defined on an uninjured section of the vessel using the Slidebook program. To monitor and compare dynamic thrombus formation among different treatment groups, the relative fluorescent intensity of Alexa Flour 647-labled platelets (recruited within thrombus) was plotted using the mean fluorescence at each time point. Data were evaluated for significance with two-way ANOVA and Mann-Whitney test for nonparametric data using Prism 6 software (Graphpad, La Jolla, CA, USA).

The test system of another data set is washed human platelets. Description: In vitro washed human platelet aggregation test (thrombin-induced). Format: cell-based. Conditions: ML355 10 μM, sHDL 100 μg/mL, 15 minutes. On the procedure: Human platelets were prepared and aggregation was assayed as described previously (44, 45, 56). Platelets were incubated with DMSO (equivalent volume to dissolve ML355) and treated with control, ML355 (10 μM), sHDL (100 μg/mL), or ML355-sHDL (sHDL at 100 μg/mL and ML355 at 10 μM) for 15 minutes. In addition, untreated platelets were included as control. Platelet aggregation was induced by various doses of thrombin (0.1-1 nM) as reported in previous studies (44). Aggregation was measured in response to thrombin with a lumi-aggregometer (Model 700D; Chrono-Log) under stirring conditions at 1100 rpm at 37° C.

Data set [4] concerns C57BL/6J mice. The experiment in a line: Mouse tail bleeding assay. Conditions: 24 hours post IV; ML355 1.5 mg/kg, sHDL 50 mg/kg. Format: in vivo. The procedure: Male and female C57BL/6J mice (n=6) were intravenously dosed with the following treatments: 1) vehicle control (equivalent volume); 2) ML355 (1.5 mg/kg); 3) sHDL (50 mg/kg); or 4) ML355-sHDL (sHDL at 50 mg/kg and ML355 at 1.5 mg/kg). The tail bleeding assay was performed post 24 hour of treatment as previously described (44, 56). Briefly, mice were anesthetized as described above and placed on a heating pad. Five millimeters of tail tip was excised, and the tails were immediately immersed in 14 mL of sterile saline at 37° C. Bleeding time was recorded as the cessation of blood flow from the tail for at least […] using a stopwatch. The amount of blood loss from tail tip was quantified by measuring hemoglobin using Drabkin's reagent (Sigma). Briefly, blood samples were pelleted at 500 g for 10 minutes at room temperature, and the pellet was resuspended in 5 mL Drabkin's Reagent and incubated at room temperature for 15 minutes. Amount of hemoglobin lost was quantified by comparing the absorbance of the samples at 540 nm using SpectraMax i3 microplate reader (Molecular Devices LLC., San Jose, CA) to a standard curve of bovine hemoglobin in Drabkin's reagent.

The structures appear in SMILES notation. Where only a bound is given, the exact number is not on record here.

As for `COc1cccc(CNc2ccc(S(=O)(=O)Nc3nc4ccccc4s3)cc2)c1O` [ML355, N-2-benzothiazolyl-4-[[(2-hydroxy-3-methoxyphenyl)methyl]amino]-benzenesulfonamide], the platelet aggregation is reported as 20.3±3.5% in the data set on washed mouse platelets (0.1 nM thrombin); 32.6±6.6% with washed mouse platelets (0.25 nM thrombin); 5.6±2.5% in the data set with washed human platelets (0.1 nM thrombin); 40.4±6.8% in the data set on washed human platelets (0.25 nM thrombin); 76.4±4.7% in the data set with washed human platelets (0.5 nM thrombin). For the same molecule, the “inhibitory effects on platelet aggregation” value with washed mouse platelets (0.5 nM thrombin, 24 hours after IV dosing) is on record as “overcome”. Besides, the platelet phosphatidylserine exposure entry with platelets was “did not increase”. In addition, the “thrombus growth (and vessel occlusion)” value in the data set on C57BL/6J mice [1] is “delayed and unstable”. Moreover, the “mean vessel occlusion time” value with C57BL/6J mice [1] (ML355 1.5 mg/kg, sHDL 50 mg/kg) came to 11.0 ± 2.3 min. The “coagulation (TEG parameters R time, K time, alpha angle, MA)” value in the data set on whole blood is given as “did not compromise the coagulation”. Moreover, in data set [2], the estimated solubility is under 5 µg/mL. In the data set with C57BL/6J mice [3], the “inhibition of thrombus formation (platelet accumulation in thrombi)” value is on record as “varying levels of inhibition”. Further, in the data set with C57BL/6J mice [4], the “blood loss evaluated by measuring hemoglobin” value is given as “no effect”. Besides, the tail bleeding time entry with C57BL/6J mice [4] is listed as “did not prolong”.
